Experimental data reported in patent US10294202B2, “Pyrrolidinones as herbicides” (FMC Corporation, priority 2013, dated 2019).

Key:
kochia = assay: Test A pre-/postemergence herbicide test; format: in vivo, Kochia scoparia
Procedure, shortened: (§1)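 Both application timings used compounds in a non-phytotoxic solvent plus surfactant. Pre-emergence: soil sprayed directly after seeding into loam/sand. Post-emergence: foliage of 2–10 cm seedlings (1–2 leaves) sprayed. Injury rated ~10 days later, 0–100.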

corn = assay: Test A pre-/postemergence herbicide test; format: in vivo, Zea mays; settings: Postemergence
Procedure, shortened: as §1

giant foxtail = assay: Test A pre-/postemergence herbicide test; format: in vivo, Setaria faberii
Procedure, shortened: as §1

rice = assay: Test B flooded paddy test; format: in vivo, Oryza sativa; settings: 500 g ai/ha, Flood; scale of 0 to 100 where 0 is no effect and 100 is complete control
Procedure, shortened: (§2)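 Scored visually 0–100 (0 no effect, 100 complete control) versus controls after 13 to 15 greenhouse days. Treatment: compound added to paddy water kept 3 cm above soil, on 2-leaf-stage plants.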

barnyardgrass [1] = assay: Test B flooded paddy test; format: in vivo, Echinochloa crus-galli; settings: 500 g ai/ha, Flood; scale of 0 to 100 where 0 is no effect and 100 is complete control
Procedure, shortened: as §2

ryegrass, Italian = assay: Test A pre-/postemergence herbicide test; format: in vivo, Lolium multiflorum
Procedure, shortened: as §1

barnyardgrass [2] = assay: Test A pre-/postemergence herbicide test; format: in vivo, Echinochloa crus-galli
Procedure, shortened: as §1

ragweed = assay: Test A pre-/postemergence herbicide test; format: in vivo, Ambrosia elatior
Procedure, shortened: as §1

pigweed = assay: Test A pre-/postemergence herbicide test; format: in vivo, Amaranthus retroflexus
Procedure, shortened: as §1

sedge, umbrella = assay: Test B flooded paddy test; format: in vivo, Cyperus difformis; settings: 500 g ai/ha, Flood; scale of 0 to 100 where 0 is no effect and 100 is complete control
Procedure, shortened: as §2

ducksalad = assay: Test B flooded paddy test; format: in vivo, Heteranthera limosa; settings: 500 g ai/ha, Flood; scale of 0 to 100 where 0 is no effect and 100 is complete control
Procedure, shortened: as §2

galium = assay: Test A postemergence herbicide test; format: in vivo, Galium aparine
Procedure, shortened: (§3)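 Visual injury rating, 0 (no effect) to 100 (complete control), versus untreated controls ~10 days after treatment. Postemergence spray applied at one- to two-leaf stage, plants 2–10 cm tall, potted in loam soil/sand. Greenhouse-held.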

blackgrass = assay: Test A postemergence herbicide test; format: in vivo, Alopecurus myosuroides
Procedure, shortened: as §3

wheat = assay: Test A pre-/postemergence herbicide test; format: in vivo, Triticum aestivum; settings: Postemergence
Procedure, shortened: as §1

[3] = Postemergence, 125 g ai/ha, visual rating on 0 to 100 scale (0 no effect, 100 complete control), approx. 10 days
[4] = Postemergence, 500 g ai/ha, 0 to 100 scale (0 no effect, 100 complete control)
[5] = Preemergence, 125 g ai/ha, 0 to 100 scale where 0 is no effect and 100 is complete control
[6] = Preemergence, 500 g ai/ha, visual rating on 0 to 100 scale (0 no effect, 100 complete control)
[7] = 125 g ai/ha, visual rating on 0 to 100 scale (0 no effect, 100 complete control), approx. 10 days
[8] = 500 g ai/ha, 0 to 100 scale (0 no effect, 100 complete control)
[9] = 125 g ai/ha, visual rating, 0 to 100 scale, 0 no effect, 100 complete control, approximately 10 days, preemergence
[10] = Postemergence, 125 g ai/ha, 0 to 100 scale, 0 no effect, 100 complete control
[11] = preemergence, 500 g ai/ha, 0 to 100 scale, 0 is no effect and 100 is complete control
[12] = 125 g ai/ha, 0 to 100 scale, 0 no effect, 100 complete control

O=C1NCC(c2cccc(Oc3ccccc3)c2)C1C(=O)Nc1ccccc1F (stereo not drawn) [Compound 330]
Plant response rating, Kochia (kochia; [3]): 0
Plant response rating, Kochia (kochia; [4]): 0
Plant response rating, Kochia (kochia; [5]): 20
Kochia plant response rating (kochia; [6]): 20
Plant response rating, Corn (corn; [7]): 0
Plant response rating, Corn (corn; [8]): 0
Plant response rating, Foxtail, Giant (giant foxtail; [3]): 80
Plant response rating, Foxtail, Giant (giant foxtail; [4]): 80
Plant response rating, Foxtail, Giant (giant foxtail; [5]): 50
Foxtail, Giant plant response rating (giant foxtail; [6]): 80
Plant response rating, Rice (rice): 0
Plant response rating, Barnyardgrass (barnyardgrass [1]): 0
Plant response rating, Ryegrass, Italian (ryegrass, Italian; [3]): 0
Plant response rating, Ryegrass, Italian (ryegrass, Italian; [4]): 0
Plant response rating, Ryegrass, Italian (ryegrass, Italian; [5]): 30
Ryegrass, Italian plant response rating (ryegrass, Italian; [6]): 40
Plant response rating, Barnyardgrass (barnyardgrass [2]; [3]): 60
Plant response rating, Barnyardgrass (barnyardgrass [2]; [4]): 60
Plant response rating, Barnyardgrass (barnyardgrass [2]; [5]): 60
Barnyardgrass plant response rating (barnyardgrass [2]; [6]): 70
Plant response rating, Ragweed (ragweed; [3]): 0
Plant response rating, Ragweed (ragweed; [4]): 0
Plant response rating, Ragweed (ragweed; [5]): 0
Ragweed plant response rating (ragweed; [6]): 0
Plant response rating, Pigweed (pigweed; [3]): 0
Plant response rating, Pigweed (pigweed; [4]): 0
Plant response rating, Pigweed (pigweed; [5]): 0
Pigweed plant response rating (pigweed; [6]): 20
Plant response rating, Sedge, Umbrella (sedge, umbrella): 0
Plant response rating, Ducksalad (ducksalad): 100
Plant response rating, Galium (galium; [7]): 20
Plant response rating, Galium (galium; [8]): 30
Plant response rating, Blackgrass (blackgrass; [7]): 0
Plant response rating, Blackgrass (blackgrass; [8]): 0
Plant response rating, Wheat (wheat; [7]): 0
Plant response rating, Wheat (wheat; [8]): 0

Cc1ccc(C2CNC(=O)C2C(=O)Nc2ccccc2Cl)cc1 (racemic) [Compound 152]
Plant response rating, Kochia (kochia; [9]): 30
Plant response rating, Kochia (kochia; [10]): 50
Kochia plant response rating (0 to 100 scale, 0 is no effect, 100 is complete control) (kochia; Postemergence, 500 g ai/ha): 60
Plant response rating, Kochia (kochia; [11]): 60
Plant response rating, Corn (corn; [12]): 0
Corn plant response rating (0 to 100 scale, 0 is no effect, 100 is complete control) (corn; 500 g ai/ha): 0
Plant response rating, Foxtail, Giant (giant foxtail; [9]): 70
Plant response rating, Foxtail, Giant (giant foxtail; [10]): 50
Foxtail, Giant plant response rating (0 to 100 scale, 0 is no effect, 100 is complete control) (giant foxtail; Postemergence, 500 g ai/ha): 60
Plant response rating, Foxtail, Giant (giant foxtail; preemergence, 500 g ai/ha, 0 to 100 scale): 90
Plant response rating, Rice (rice): 15
Plant response rating, Barnyardgrass (barnyardgrass [1]): 60
Plant response rating, Ryegrass, Italian (ryegrass, Italian; [9]): 0
Plant response rating, Ryegrass, Italian (ryegrass, Italian; [10]): 10
Ryegrass, Italian plant response rating (0 to 100 scale, 0 is no effect, 100 is complete control) (ryegrass, Italian; Postemergence, 500 g ai/ha): 50
Plant response rating, Ryegrass, Italian (ryegrass, Italian; [11]): 30
Plant response rating, Barnyardgrass (barnyardgrass [2]; [9]): 90
Plant response rating, Barnyardgrass (barnyardgrass [2]; [10]): 70
Barnyardgrass plant response rating (0 to 100 scale, 0 is no effect, 100 is complete control) (barnyardgrass [2]; Postemergence, 500 g ai/ha): 80
Plant response rating, Barnyardgrass (barnyardgrass [2]; preemergence, 500 g ai/ha, 0 to 100 scale (0 no effect, 100 complete control)): 90
Plant response rating, Ragweed (ragweed; [9]): 50
Plant response rating, Ragweed (ragweed; [10]): 40
Ragweed plant response rating (0 to 100 scale, 0 is no effect, 100 is complete control) (ragweed; Postemergence, 500 g ai/ha): 50
Plant response rating, Ragweed (ragweed; [11]): 70
Plant response rating, Pigweed (pigweed; [9]): 0
Plant response rating, Pigweed (pigweed; [10]): 0
Pigweed plant response rating (0 to 100 scale, 0 is no effect, 100 is complete control) (pigweed; Postemergence, 500 g ai/ha): 20
Plant response rating, Pigweed (pigweed; [11]): 10
Plant response rating, Sedge, Umbrella (sedge, umbrella): 0
Plant response rating, Ducksalad (ducksalad): 100
Plant response rating, Galium (galium; [12]): 60
Galium plant response rating (0 to 100 scale, 0 is no effect, 100 is complete control) (galium; 500 g ai/ha): 70
Plant response rating, Blackgrass (blackgrass; [12]): 0
Blackgrass plant response rating (0 to 100 scale, 0 is no effect, 100 is complete control) (blackgrass; 500 g ai/ha): 50
Plant response rating, Wheat (wheat; [12]): 0
Wheat plant response rating (0 to 100 scale, 0 is no effect, 100 is complete control) (wheat; 500 g ai/ha): 0
